# Experimental data as given in US20060171945A1, “Ip receptor antagonists for the treatment of pathological uterine conditions” (priority 2003, published 2006).
# pIC50: −log10 of the molar value. “And” between values parts separate entries of the source, which are not always exact repeats. Equal entries are not always repeated.
# What was measured:
# FP receptor = details: cited from earlier work
# DP = details: 10 μM; cited from earlier work
# EP2 = EP2 (Homo sapiens, UniProt P43116); details: 10 μM; cited from earlier work
# TP = details: 10 μM; cited from earlier work
# EP4 = details: 10 μM; cited from earlier work
# COX-2 = biological target: T1, COX-2 (Homo sapiens, UniProt P35354); details: cited from earlier work
# T1 sequence (P35354 18-604): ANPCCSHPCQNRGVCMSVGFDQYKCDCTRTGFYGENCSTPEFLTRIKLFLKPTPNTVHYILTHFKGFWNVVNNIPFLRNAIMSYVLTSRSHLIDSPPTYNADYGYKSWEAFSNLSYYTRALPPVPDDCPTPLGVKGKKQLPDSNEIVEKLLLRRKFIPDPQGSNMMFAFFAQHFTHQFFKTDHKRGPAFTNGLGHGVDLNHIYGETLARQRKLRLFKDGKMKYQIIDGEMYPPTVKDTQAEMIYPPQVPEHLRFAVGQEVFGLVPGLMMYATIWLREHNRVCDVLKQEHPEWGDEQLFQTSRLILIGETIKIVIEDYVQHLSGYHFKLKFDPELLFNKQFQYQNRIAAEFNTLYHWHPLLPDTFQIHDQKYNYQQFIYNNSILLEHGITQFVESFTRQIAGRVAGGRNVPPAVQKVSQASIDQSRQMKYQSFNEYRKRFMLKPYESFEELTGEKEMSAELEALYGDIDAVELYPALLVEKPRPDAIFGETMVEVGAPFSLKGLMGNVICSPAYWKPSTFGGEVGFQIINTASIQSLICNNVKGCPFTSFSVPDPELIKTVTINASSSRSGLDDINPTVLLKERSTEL
# [1] = test system: endometrial epithelial and stromal cells; details: previously reported; cited from earlier work
# IP receptor [2] = biological target: T2, IP receptor (Homo sapiens, UniProt P43119); assay: Cyclic AMP assay in endometrial stromal (ES) cells; type: cell-based; details: 100 nM iloprost, 10 min, n=3, mean±SEM
# T2 construct: from tissue; host or cells: minced human endometrial biopsy tissue
# Description: (§1) The Ishikawa endometrial epithelial cell line (Ishikawa cells) and endometrial stromal (ES) cells were propagated in DMEM F12 culture medium with glutamax (Invitrogen Ltd., Paisley, UK) supplemented with 10% foetal bovine serum (PAA Laboratories Ltd., Yeovil, UK). Endometrial stromal cells were a generous gift from Professor R W Kelly and they were derived from human endometrial biopsy tissue as described previously (Dunn et al (2002) J Clin Endocrinol Metab 87, 1898-1901). For cyclic AMP assay, cells were grown in 6 well plates to 70% confluence. They were starved overnight in serum free medium in the presence of indomethacin (3 μg/ml). Cells were then incubated in the same medium containing 1-methyl-3-isobutylxanthine at 37° C. for 30 minutes and treated with control medium or 100 nM iloprost for 10 minutes at 37° C. […] Data are presented as mean±SEM percentage increase in cAMP after treatment with iloprost, where the increase was calculated relative to the control samples. […] Proliferation was assessed using a colorimetric method, the CellTiter 96 Aqueous One Solution Cell Proliferation Assay (Promega, Southampton, UK) according to manufacturer's instructions. Twenty microlitres of the assay reagent (containing a tetrazolium compound, inner salt and an electron coupling reagent) were added to each well and samples were incubated at 37° C. for 2 hours and plates were read at 492 nm. […]
# [3] = test system: Ishikawa endometrial epithelial cell line; assay: Proliferation assay (CellTiter 96) in Ishikawa cells; type: cell-based, human; details: 100 nM iloprost, 24 hours, n=5, mean±SEM
# Description: as §1
# IP receptor [4] = biological target: T2, IP receptor; assay: Cyclic AMP assay in Ishikawa cells; type: cell-based; details: 100 nM iloprost, 10 min, n=3, mean±SEM
# Description: as §1
# [5] = test system: endometrial stromal (ES) cells; assay: Proliferation assay (CellTiter 96) in ES cells; type: cell-based, human; details: 100 nM iloprost, 24 hours, n=6, mean±SEM
# Description: as §1
# IP receptor [6] = biological target: T2, IP receptor; assay: Whole tissue cyclic AMP assay in endometrial biopsy tissue; type: cell-based; details: 100 nM iloprost, 10 min, n=4
# Description: Endometrial biopsies from across the menstrual cycle (n=8) were minced finely with scissors and divided into three portions. The tissue was incubated is overnight at 37° C. in a humidified 5% CO2 incubator in 2 ml RPMI (Sigma, UK) medium containing, 2 mmol” L-glutamine, 100 IU penicillin and 100 μg streptomycin and 3 μg/ml indomethacin (Sigma, Poole, UK). Following overnight incubation, the tissue was incubated in the same medium containing 1-methyl-3-isobutylxanthine (Sigma) at 37° C. for 30 min. It was then treated with control medium or 100 nM iloprost (a gift from Schering Health Care, Burgess Hill, UK) for 10 min. at 37° C. and lysed in 0.1M HCl and frozen until assayed. cAMP concentration was measured by ELISA (Biomol, Affiniti, Exeter, UK) according to the manufacturer's instructions and normalised to protein concentration determined by a modification of the method of Lowry (Bio-Rad, Hemel Hempstead, UK).
# PGES = biological target: T3, PGES (Homo sapiens, UniProt O14684); details: read-out: IC50 for inhibition of PGES activity; cited from earlier work
# T3 sequence (O14684 1-152): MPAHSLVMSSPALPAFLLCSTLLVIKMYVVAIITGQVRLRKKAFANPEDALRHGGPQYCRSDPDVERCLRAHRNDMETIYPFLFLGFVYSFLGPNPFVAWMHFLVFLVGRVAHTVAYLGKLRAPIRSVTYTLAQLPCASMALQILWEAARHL
# T2 sequence (P43119 whole entry): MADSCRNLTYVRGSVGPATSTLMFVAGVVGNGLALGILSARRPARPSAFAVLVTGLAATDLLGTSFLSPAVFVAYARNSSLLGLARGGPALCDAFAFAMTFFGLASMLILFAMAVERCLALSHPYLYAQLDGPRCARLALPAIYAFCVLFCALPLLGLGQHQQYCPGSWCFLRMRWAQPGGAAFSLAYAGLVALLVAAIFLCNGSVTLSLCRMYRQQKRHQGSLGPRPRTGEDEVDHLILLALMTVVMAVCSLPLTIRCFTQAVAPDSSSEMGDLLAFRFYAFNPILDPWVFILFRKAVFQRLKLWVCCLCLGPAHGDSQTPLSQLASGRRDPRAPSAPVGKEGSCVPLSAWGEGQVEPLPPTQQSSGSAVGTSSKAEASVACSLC
# Sequence of EP2 (P43116 whole entry): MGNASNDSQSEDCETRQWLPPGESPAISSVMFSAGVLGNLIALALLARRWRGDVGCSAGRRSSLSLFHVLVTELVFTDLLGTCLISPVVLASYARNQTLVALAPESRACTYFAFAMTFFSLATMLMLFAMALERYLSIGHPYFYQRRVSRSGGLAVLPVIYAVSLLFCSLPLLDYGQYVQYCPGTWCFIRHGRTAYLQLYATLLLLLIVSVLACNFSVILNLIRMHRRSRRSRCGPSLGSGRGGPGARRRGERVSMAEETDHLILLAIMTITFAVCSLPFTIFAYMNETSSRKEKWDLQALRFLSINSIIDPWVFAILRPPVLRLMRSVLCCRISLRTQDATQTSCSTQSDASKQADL
structure (smiles),measurement,setting,value
"O=C(O)CCC/C=C\C[C@@H]1[C@@H](/C=C/[C@H](O)C2Cc3ccccc3C2)[C@@H](F)C[C@@H]1O [AL-8810, (5Z, 13E)-(9S, 11S,15R)-9,15-dihydroxy-11-fluoro-15-(2-indanyl)-16, 17, 18, 19, 20-pentanor-5,13-prostadienoic acid]",FP receptor antagonist potency,FP receptor,micromolar potency
same,inhibition of functional responses of DP receptor,DP,not to significantly inhibit
same,inhibition of functional responses of EP2 receptor,EP2,not to significantly inhibit
same,inhibition of functional responses of TP receptor,TP,not to significantly inhibit
same,inhibition of functional responses of EP4 receptor,EP4,not to significantly inhibit
CS(=O)(=O)Nc1cc2c(cc1Sc1ccc(F)cc1F)C(=O)CC2 [L 475 L337],specificity for COX-2 inhibition over COX-1 inhibition,COX-2,500 fold
"CS(=O)(=O)Nc1ccc([N+](=O)[O-])cc1Oc1ccccc1 [Nimesulide, N-(4-nitro-2-phenoxyphenyl) methanesulfonamide]",specificity for COX-2 inhibition over COX-1 inhibition,COX-2,100 fold
CCCCC[C@H](O)/C=C/[C@H]1[C@H](O)CC(=O)[C@@H]1C/C=C\CCCC(=O)O [PGE2],increase in proliferation,[1],25%
CCCCC[C@H](O)/C=C/[C@@H]1[C@@H](C/C=C\CCCC(=O)O)[C@@H](O)C[C@H]1O [PGF2α],increase in proliferation,[1],31%
CC#CCC(C)[C@H](O)/C=C/[C@@H]1[C@H]2C/C(=C/CCCC(=O)O)C[C@H]2C[C@H]1O (stereo partly shown) [iloprost],"cAMP generation, of control values",IP receptor [2],"37,936%±18,464%"
same,"proliferation, of control values",[3],109.4%±2.4%
same,"cAMP generation, of control values",IP receptor [4],166%±27.6%
same,"proliferation, of control values",[5],112%±3.8%
same,fold increase in cAMP generation,IP receptor [6]; samples from proliferative phase of the menstrual cycle,4.83±0.74 fold
same,fold increase in cAMP generation,IP receptor [6]; samples from secretory phase of the menstrual cycle,2.07±0.38 fold and 2.07±0.39 fold
CCCCC/C=C\C\C=C/C=C/C=C/[C@@H](SC[C@H](NC(=O)CC[C@H](N)C(=O)O)C(=O)NCC(=O)O)[C@@H](O)CCCC(=O)O [leukotriene C4],pIC50,PGES,5.30
CSc1ccc(/C=C2/C(C)=C(CC(=O)O)c3cc(F)ccc32)cc1 [sulindac sulphide],pIC50,PGES,4.10
Cc1ccc(S(=O)(=O)NC(=O)NN2CCCCCC2)cc1 [tolazamide],FP receptor antagonist potency,FP receptor,very weak antagonists
CCCCNC(=O)NS(=O)(=O)c1ccc(C)cc1 [tolbutamide],FP receptor antagonist potency,FP receptor,very weak antagonists
